Results: US20120284809A1, “KNOCK DOWN MODEL OF DICKKOPF HOMOLOGUE 3 (Dkk3) FOR ASSESSING ROLE OF SAID Dkk3 IN SPERMATOGENESIS AND SEX REVERSAL” (National Institute of Immunology, priority 2011, published 2012)

System: spermatogenesis in Dkk3 knock down model
Assay: Testosterone replacement in Dkk3 knock down model
Format: in vivo, non human vertebrate
Details: 5 mg intramuscularly
Procedure: Serum testosterone concentrations from the Dkk3 knock down model and wild-type can be assessed at 10 weeks of age. Blood can be obtained through retro orbital bleeding before sacrificing the model. Serum testosterone can be assayed using a modified testosterone immunoassay (RIA) system in triplicate. […] For testosterone replacement, Dkk3 knock down model can be injected intramuscularly with 5 mg of testosterone undecanoate. Controls may be injected with castor oil. Blood can be taken after one month of the injection and serum testosterone levels may be measured.

In the case of `CCCCCCCCCCC(=O)O[C@H]1CC[C@H]2[C@@H]3CCC4=CC(=O)CC[C@]4(C)[C@H]3CC[C@]12C` [testosterone undecanoate], the “Sperm counts vs Dkk3 knock down model” value (not up to wild type control levels) is reported as “marginal increase” and the “degree of spermatogenesis tubule disruption (histology) vs castor oil treated controls” value (one month) is reported as “did not showed any improvement”.
